According to US20110046107A1, “SULFONYL-SUBSTITUTED CARBAPENEM COMPOUNDS” (priority 2007, published 2011):
Converted amounts (≈) assume the structure as drawn. Like-named read-outs stand apart in the source and are kept apart here.

Experiments:
[1] = Pharmacokinetic study of the compounds in SD rat (intravenous injection); assay type: in vivo, SD male rats; conditions: in vivo, SD male rats, intravenous injection 10 mg/kg, plasma, X ± SD, n = 3, read-out: t1/2 (half lives) (converted)
Description: Test drugs: the compound 1, 6, 8 and 9 prepared in the examples
Control drugs: Meropenem (Meropenem for injection), commercially available; Doripenem (Doripenem for Injection).
Internal standard substance: Warfarin, a white powder, purity 99%, batch number: 0072-8501, provided by Shanghai Institute for Drug Control.
Drug formulation: the test drugs were formulated before use by being dissolved in physiological saline to make a final concentration of 5 mg/mL for intravenous injection.
Test animal: SD male rats, weight: 200˜250 g, purchased from SHANGHAI SLAC LABORATORY ANIMAL CO. LTD.
Drug administration: The SD male rats were randomly divided into five groups with 3 in each group, and given the drugs by intravenous injection at a dose of 10 mg/kg. The animals were weighed before administration.
Collection of Samples: Zero time was marked before administration; 0.5 mL of blood was respectively sampled from orbit venous plexus at 5 min, 15 min, 30 min, 45 min, 1 h, 2 h, 4 h, 6 h, 8 h, 24 h after administration into heparinized centrifuge tubes. The samples were centrifuged for 6 minutes at 8000 rpm and the supernatant plasma was separated. The plasma was frozen at −20° C. for LC-MS/MS analysis.
Chromatographic conditions: column: Gemini C6-Phenyl (50 mm×4.6 mm, 5 μm); mobile phase: 0.1% of formic acid-water-acetonitrile (5:35:60, v/v/v); flow rate: 1 mL/min; column temperature: 35-40° C.; injection volume: 5 μL; split ratio: 1/5.
Mass spectrometer conditions: scanning mode: cation multiple reactions monitoring (MRM); ion source: electrospray ionization (ESI); Nebulize gas: 8 L/min; Curtain gas: 8 L/min; Collision gas: 4 L/min; Ionspray voltage: 4500 v; Temperature: 400° C./500° C.
Preparation of the Standard Curve and Quality-Control Sample: a Suitable Amount of the test drug was weighed precisely and then formulated into a stock solution (2.6 mg/mL) with ultrapure water. The stock solution was diluted with methanol to obtain a series of working solutions in a concentration of 25000, 5000, 2500, 500, 250 and 50 ng/mL, respectively. 100 μL of plasma samples were separately added into 20 μL of said working solutions to obtain the calibration solutions in a concentration of 5000, 1000, 500, 100, 50 and 10 ng/mL. By the same method, the quality-controlled sample solutions in a concentration of 4000, 800 and 20 ng/mL can be prepared. A standard curve was obtained by chromatographic analysis of the samples.
Sample preparation: 20 μL of acetonitrile and 200 μL (200 ng/mL) of Warfarin in acetonitrile were added into 100 μL of plasma sample, then spun for 1 minute and centrifuged for 5 minutes at 15000 rpm. 100 μL of the supernatant was taken, where 3 μL aliquot of the supernatant was used for the LC/MS/MS analysis.
Dosing concentration: The accuracy of the drug concentration in dosing solution for intravenous injection was 103.2%, determined by analysis of the formulated drugs using HPLC and comparison with the standards.
Data analysis: The drug concentration in plasma would be considered as zero if under the detection limit (10 ng/mL). The pharmacokinetics parameters were calculated by the non-compartment model using Winnonlin Professional 5.2 pharmacokinetics software.
Pharmacokinetics: The pharmacokinetics parameters and drug concentration-time curve were obtained by measuring the plasma drug concentration at different time points.

streptococcus pyogenes = assay: In vitro antibacterial activity, agar dilution method (clinical isolates); assay type: cell-based; conditions: clinically isolated strains, Gram-positive, read-out: MIC90 S. pyogenes
Excerpt: (§1) Bacterial strains for test: All the bacterial strains are clinical isolates and purchased from public organizations. methicillin-sensitive staphylococcus aureus (MS SA), methicillin-resistant staphylococcus aureus (MRSA), methicillin-sensitive staphylococcus epidermidis (MSSE), methicillin-resistant staphylococcus epidermidis (MRSE), streptococcus pyogenes, penicillin-sensitive streptococcus pneumoniae (PSSP), penicillin-resistant streptococcus pneumoniae (PRSP), Escherichia coli, Citrobacter freundii, Enterobacter cloacae, Hemophilus influenza, Klebsiella pneumonia (producing ESBL), Morganella morganii, Proteus mirabilis, Serratia marcescens, and Pseudomonas aeruginosa.
(§2) Drugs to be tested: compounds of the invention prepared in the examples; the chemical names, structural formulae, preparation materials, and preparation methods are provided in the preparation examples of the compounds;
(§3) Meropenem (Meropenem for injection), Ertapenem (Ertapenem for injection), and Doripenem (Doripenem for injection) commercially available
(§4) Experimental method: the agar dilution method, by reference to Methodology of Pharmacological Experiment (XU Shuyun et al, published by the Peoples Medical Publishing House, 1st Edition, August, 1982; 3rd Edition, 5th printing, January 2002, p 1659-1660).

Citrobacter freundii = assay: as above; assay type: cell-based; conditions: clinically isolated strains, Gram-negative
Excerpt: as §1, §2, §3, §4

Proteus mirabilis = assay: as above; assay type: cell-based; conditions: read-out: MIC90 Proteus mirabilis
Excerpt: as §1, §2, §3, §4

[2] = tested on: methicillin-sensitive staphylococcus aureus (MSSA); assay: as above; assay type: cell-based; conditions: clinically isolated strains, Gram-positive, agar dilution, read-out: MIC90 S. aureus MSSA
Excerpt: as §1, §2, §3, §4

[3] = tested on: methicillin-resistant staphylococcus aureus (MRSA); assay: as above; assay type: cell-based; conditions: clinically isolated strains, Gram-positive, read-out: MIC90 S. aureus MRSA
Excerpt: as §1, §2, §3, §4

[4] = tested on: methicillin-resistant staphylococcus epidermidis (MRSE); assay: as above; assay type: cell-based; conditions: clinically isolated strains, Gram-positive, read-out: MIC90 S. epidermidis MRSE
Excerpt: as §1, §2, §3, §4

Hemophilus influenza = assay: as above; assay type: cell-based; conditions: read-out: MIC90 Hemophilus influenza
Excerpt: as §1, §2, §3, §4

Morganella morganii = assay: as above; assay type: cell-based; conditions: clinically isolated strains, Gram-negative
Excerpt: as §1, §2, §3, §4

[5] = tested on: penicillin-resistant streptococcus pneumoniae (PRSP); assay: as above; assay type: cell-based; conditions: clinically isolated strains, Gram-positive, read-out: MIC90 S. pneumoniae PRSP
Excerpt: as §1, §2, §3, §4

Enterobacter cloacae = assay: as above; assay type: cell-based; conditions: read-out: MIC90 Enterobacter cloacae
Excerpt: as §1, §2, §3, §4

[6] = tested on: Klebsiella pneumonia (producing ESBL); assay: as above; assay type: cell-based; conditions: Klebsiella pneumoniae; clinically isolated strains (producing ESBL), Gram-negative, agar dilution; read-out: MIC90 Klebsiella pneumonia
Excerpt: as §1, §2, §3, §4

[7] = tested on: methicillin-sensitive staphylococcus epidermidis (MSSE); assay: as above; assay type: cell-based; conditions: clinically isolated strains, Gram-positive, agar dilution, read-out: MIC90 S. epidermidis MSSE
Excerpt: as §1, §2, §3, §4

Pseudomonas aeruginosa = assay: as above; assay type: cell-based; conditions: clinically isolated strains, Gram-negative
Excerpt: as §1, §2, §3, §4

Serratia marcescens = assay: as above; assay type: cell-based; conditions: read-out: MIC90 Serratia marcescens
Excerpt: as §1, §2, §3, §4

Escherichia coli = assay: as above; assay type: cell-based; conditions: clinically isolated strains, Gram-negative, read-out: MIC90 E. coli
Excerpt: as §1, §2, §3, §4

[8] = tested on: penicillin-sensitive streptococcus pneumoniae (PSSP); assay: as above; assay type: cell-based; conditions: clinically isolated strains, Gram-positive, read-out: MIC90 S. pneumoniae PSSP
Excerpt: as §1, §2, §3, §4

[9] = clinically isolated strains, Gram-negative, agar dilution

SMILES | half-life [1] [min] | MIC90 (streptococcus pyogenes) [ng/mL] | MIC90 (Citrobacter freundii) [µg/mL] | MIC90 (Proteus mirabilis; [9]) [µg/mL] | MIC90 [2] [µg/mL] | MIC90 [3] [µg/mL] | MIC90 [4] [µg/mL] | MIC90 (Hemophilus influenza) [µg/mL] | MIC90 (Morganella morganii) [µg/mL] | MIC90 [5] [µg/mL] | MIC90 (Enterobacter cloacae; [9]) [µg/mL] | MIC90 [6] [µg/mL] | MIC90 [7] [µg/mL] | MIC90 (Pseudomonas aeruginosa) [µg/mL] | MIC90 (Serratia marcescens; [9]) [µg/mL] | MIC90 (Escherichia coli) [µg/mL] | MIC90 [8] [ng/mL] | MIC90 (Hemophilus influenza; [9]) [µg/mL] | MIC90 (Enterobacter cloacae) [µg/mL] | also measured
C[C@@H](O)[C@H]1C(=O)N2C(C(=O)O)=C(SC3CN(S(N)(=O)=O)C3)[C@H](C)[C@H]12 [Compound 1, (4R,5S,6S)-3-[N-aminosulfonyl-azetidin-3-yl]thio-6-[(1R)-1-hydroxyethyl]-4-methyl-7-oxo-1-aza-bicyclo-[3.2.0]hept-2-ene-2-carboxylic acid] | 19.2 ± 1.2 | 4 (≈ 0.0106 µM) | 0.016 (≈ 0.0424 µM) | 0.63 (≈ 1.67 µM) | 0.032 (≈ 0.0848 µM) | 4 (≈ 10.6 µM) | 4 (≈ 10.6 µM) | 0.063 (≈ 0.167 µM) | 0.032 (≈ 0.0848 µM) | 0.5 (≈ 1.32 µM) | 0.063 (≈ 0.167 µM) | 0.032 (≈ 0.0848 µM) | 0.063 (≈ 0.167 µM) | 4 (≈ 10.6 µM) | 0.063 (≈ 0.167 µM) | 0.008 (≈ 0.0212 µM) | 8 (≈ 0.0212 µM) |  |  | 
CCN(CC)S(=O)(=O)N1CC(SC2=C(C(=O)O)N3C(=O)[C@H]([C@@H](C)O)[C@H]3[C@H]2C)C1 [Compound 7, (4R,5S,6S)-3-[1-(N,N-diethylaminosulfonyl)-azetidin-3-yl]thio-6-[(1R)-1-hydroxyethyl]-4-methyl-7-oxo-1-aza-bicyclo-[3.2.0]hept-2-ene-2-carboxylic acid] |  | 4 (≈ 0.00923 µM) | 0.016 (≈ 0.0369 µM) |  | 0.063 (≈ 0.145 µM) | 8 (≈ 18.5 µM) | 8 (≈ 18.5 µM) |  | 0.063 (≈ 0.145 µM) | 0.5 (≈ 1.15 µM) |  | 0.063 (≈ 0.145 µM) | 0.063 (≈ 0.145 µM) | 8 (≈ 18.5 µM) | 0.063 (≈ 0.145 µM) | 0.016 (≈ 0.0369 µM) | 8 (≈ 0.0185 µM) | 0.125 (≈ 0.288 µM) | 0.125 (≈ 0.288 µM) | MIC90 (Proteus mirabilis): 0.125 µg/mL (≈ 0.288 µM)
C[C@@H](O)[C@H]1C(=O)N2C(C(=O)O)=C(SC3CN(S(=O)(=O)NCC(O)CN)C3)[C@H](C)[C@H]12 (stereo partly drawn) [Compound 9, (4R,5S,6S)-3-[1-(2-hydroxy-3-aminopropylaminosulfonyl)-azetidin-3-yl]thio-6-[(1R)-1-hydroxyethyl]-4-methyl-7-oxo-1-aza-bicyclo-[3.2.0]-hept-2-ene-2-carboxylic acid] | 19.2 ± 3.6 |  |  |  |  |  |  |  |  |  |  |  |  |  |  |  |  |  |  | 
C[C@@H](O)[C@H]1C(=O)N2C(C(=O)O)=C(SC3CN(S(=O)(=O)NCC(N)=O)C3)[C@H](C)[C@H]12 [Compound 10] |  | 8 (≈ 0.0184 µM) | 0.032 (≈ 0.0736 µM) | 0.063 (≈ 0.145 µM) | 0.063 (≈ 0.145 µM) | 8 (≈ 18.4 µM) | 16 (≈ 36.8 µM) |  | 0.016 (≈ 0.0368 µM) | 5 (≈ 11.5 µM) |  | 0.063 (≈ 0.145 µM) | 0.063 (≈ 0.145 µM) | 8 (≈ 18.4 µM) | 0.063 (≈ 0.145 µM) | 0.008 (≈ 0.0184 µM) | 8 (≈ 0.0184 µM) | 0.125 (≈ 0.288 µM) | 0.125 (≈ 0.288 µM) | 
C[C@@H](O)[C@H]1C(=O)N2C(C(=O)O)=C(S[C@@H]3CN[C@H](C(=O)Nc4cccc(C(=O)O)c4)C3)[C@H](C)[C@H]12 [ertapenem, Ertapenem, reference compound] |  | 32 (≈ 0.0673 µM) | 0.25 (≈ 0.526 µM) | 1 (≈ 2.1 µM) | 0.5 (≈ 1.05 µM) | > 64 | 64 (≈ 135 µM) |  | 0.25 (≈ 0.526 µM) | 2 (≈ 4.21 µM) | 2 (≈ 4.21 µM) | 1 (≈ 2.1 µM) | 0.5 (≈ 1.05 µM) | 32 (≈ 67.3 µM) | 0.5 (≈ 1.05 µM) | 0.25 (≈ 0.526 µM) | 63 (≈ 0.132 µM) | 1 (≈ 2.1 µM) |  | 
C[C@@H](O)[C@H]1C(=O)N2C(C(=O)[O-])=C(SC3CN(S(=O)(=O)NCC(O)CN)C3)[C@H](C)[C@H]12.[Na+] (stereo partly shown) [sodium salt of compound 9] |  | 8 | 0.032 | 0.63 | 0.032 | 16 | 8 | 0.125 | 0.032 | 0.5 | 0.063 | 0.063 | 0.063 | 16 |  | 0.016 | 8 |  |  | MIC90 (Serratia marcescens): 0.125 µg/mL
